Test results from patent US8198273B2, “Compounds and methods for kinase modulation, and indications therefor” (Plexxikon Inc., priority 2009, dated 2012).
pIC50: −log10 of the molar value.

Columns and labels:
[1] = test system: SW620 colon adenocarcinoma cells (wild-type B-RAF); assay: SW620 cell growth inhibition (ATPlite); format: cell-based; conditions: Homo sapiens, SW-620, 72 h; SW620, 3 days incubation
Procedure, shortened: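 Cells plated overnight, then exposed 3 days at 37° C to 8-point 1:3 compound dilutions topping at 10 μM final. Viability read as ATPlite luminescence, proportional to cell number; IC50 from luminescence versus concentration.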

CYP3A4(BQ) = CYP3A4(BQ) (Homo sapiens, UniProt P08684); assay: CYP3A4(BQ) inhibition (fluorescent substrate); format: in vitro ADME; conditions: read-out: Cyp IC50 3A4(BQ)
Procedure, shortened: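 Inhibition was followed as loss of fluorescent metabolite from a known substrate, with compound in co-factor mix as a 10-point 1:1 serial dilution (100 mM DMSO stock).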

CYP2C19 = CYP2C19 (Homo sapiens, UniProt P33261); assay: CYP2C19 inhibition (fluorescent substrate); format: in vitro ADME; conditions: CYP2C19, CEC substrate; read-out: Cyp IC50 2C19
Procedure, shortened: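 IC50 values come from plotting product fluorescence against compound concentration; inhibition lowers formation of the fluorescent metabolite. Ten-point twofold dilutions in co-factor mix were held 10 minutes at 37 °C before the enzyme reaction, also run at 37 °C.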

Measured: pIC50

Chain of CYP3A4(BQ) (P08684 whole entry): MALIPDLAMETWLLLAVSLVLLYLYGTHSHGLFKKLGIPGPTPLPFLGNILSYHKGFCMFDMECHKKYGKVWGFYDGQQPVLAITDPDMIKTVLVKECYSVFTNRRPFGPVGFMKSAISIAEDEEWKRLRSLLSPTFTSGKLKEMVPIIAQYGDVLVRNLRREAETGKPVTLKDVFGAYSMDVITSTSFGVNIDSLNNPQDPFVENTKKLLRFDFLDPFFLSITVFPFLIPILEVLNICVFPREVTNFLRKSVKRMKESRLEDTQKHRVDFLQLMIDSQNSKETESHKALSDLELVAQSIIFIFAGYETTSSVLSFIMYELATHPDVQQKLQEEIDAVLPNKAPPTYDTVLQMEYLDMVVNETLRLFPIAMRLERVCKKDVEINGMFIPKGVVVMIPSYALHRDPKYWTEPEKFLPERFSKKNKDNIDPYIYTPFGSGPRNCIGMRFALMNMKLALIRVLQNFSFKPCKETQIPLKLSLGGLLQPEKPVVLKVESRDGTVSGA
Chain of CYP2C19 (P33261 whole entry): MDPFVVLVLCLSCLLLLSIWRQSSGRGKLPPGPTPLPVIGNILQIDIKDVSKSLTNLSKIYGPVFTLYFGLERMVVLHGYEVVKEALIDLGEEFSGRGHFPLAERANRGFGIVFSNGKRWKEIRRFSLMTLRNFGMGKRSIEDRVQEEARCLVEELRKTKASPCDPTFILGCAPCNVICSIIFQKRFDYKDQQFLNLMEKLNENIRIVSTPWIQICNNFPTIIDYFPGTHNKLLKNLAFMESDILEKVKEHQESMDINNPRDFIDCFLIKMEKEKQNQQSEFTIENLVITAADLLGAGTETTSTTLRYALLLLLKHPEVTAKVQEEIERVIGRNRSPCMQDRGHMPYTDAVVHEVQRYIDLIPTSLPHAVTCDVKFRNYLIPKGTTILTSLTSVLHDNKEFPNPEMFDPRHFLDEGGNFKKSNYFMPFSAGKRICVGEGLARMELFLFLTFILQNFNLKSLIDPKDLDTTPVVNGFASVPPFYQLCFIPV

CCCS(=O)(=O)Nc1ccc(F)c(C(=O)c2c[nH]c3ncc(-c4ccc(N(C)C)nc4)cc23)c1F [P-2229, Propane-1-sulfonic acid {3-[5-(6-dimethylamino-pyridin-3-yl)-1H-pyrrolo[2,3-b]pyridine-3-carbonyl]-2,4-difluoro-phenyl}-amide]
< 5.00: all assays above
